Measurements from patent US20250195661A1, “NIR-responsive stem cell-derived inflammation attenuating complex and use thereof” (priority 2023, published 2025).

Assay: Hydrodynamic size and potential analysis
Format: physicochemical
Procedure: The hydrodynamic size distribution and electrical potential of nanomedicines including AuS-TA were evaluated using a Litesizer 500 (Anton Paar) according to the manufacturer's instructions. AuS and TA non-covalently attached to AuS were quantified by determining absorbance using UV-vis spectrophotometry (Biochrom). […] Therefore, the TA amount of Edu-MSCs-AuS-TA was measured based on the AuS-TA ratio of AuS and TA. The concentration of each solution was extrapolated using the linear standard curve for AuS and TA. The morphology, crystallinity, and EDS mapping of AuS-PEG and AuS-TA complexes were analyzed using TEM (F30, Tecnai, USA) and STEM (JEM-ARM200F, JEOL, Japan).

With C[C@]12C=CC(=O)C=C1CC[C@H]1[C@@H]3C[C@@H](O)[C@](O)(C(=O)CO)[C@@]3(C)C[C@H](O)[C@@]12F [TA, triamcinolone] the hydrodynamic size was 77 nm and the surface charge was “close to neutral”.
